In patent US9505769B2 (ASCENEURON SA, priority 2013, dated 2016) one finds EC50 data, which are given here for 11 compounds.

Molecules are shown by their SMILES. Where a name gives a salt, the structure may show the parent alone.

In one assay the target is T1, human muscarinic acetylcholine M1 receptor (Homo sapiens, UniProt P11229).
T1 construct: expressed in transfected cells; host or cells: CHO-K1
T1 sequence (P11229 1-460): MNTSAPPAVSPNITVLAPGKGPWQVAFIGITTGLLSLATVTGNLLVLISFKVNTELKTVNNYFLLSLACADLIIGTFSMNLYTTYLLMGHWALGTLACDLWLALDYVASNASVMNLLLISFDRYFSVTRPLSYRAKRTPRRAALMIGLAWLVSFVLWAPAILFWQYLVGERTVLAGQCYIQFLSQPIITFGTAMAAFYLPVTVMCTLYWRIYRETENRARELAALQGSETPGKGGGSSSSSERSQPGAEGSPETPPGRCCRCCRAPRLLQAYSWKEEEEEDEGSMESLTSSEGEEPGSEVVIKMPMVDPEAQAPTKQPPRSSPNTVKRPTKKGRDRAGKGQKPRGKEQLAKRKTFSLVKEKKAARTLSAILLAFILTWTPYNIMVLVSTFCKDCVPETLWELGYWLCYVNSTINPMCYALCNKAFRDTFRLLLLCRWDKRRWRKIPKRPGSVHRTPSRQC
The experiment in a line: M1 PAM Assay (IP-One HTRF, IP1 accumulation in M1-CHO cells). In kind it is cell-based.
Conditions: not given
How it is done:
Then diluted compounds (0.6% DMSO final concentration) are added together with EC20 of acetylcholine and incubated with the cells for 30 min at 37° C., 5% CO2.
CHO-K1 cells stably transfected with human muscarinic acetylcholine M1 receptor are cultured in Ham's F12 medium containing 10% heat inactivated fetal calf serum, 2 mM L-glutamine and Penicillin-Streptomycin grown in a humidified atmosphere at 5% CO2/95% air at 37° C.
On the technique in general: Time-resolved FRET reads energy transfer from a long-lived donor to a nearby acceptor.
Regarding `CN1[C@@H]2CC[C@H]1C[C@@H](Oc1cc(F)ccc1C(=O)N1Cc3nn4cc(C5CC5)cnc4c3C1)C2` [Example 74, (3-cyclopropyl-7H-pyrrolo[3′,4′:3,4]pyrazolo[1,5-a]pyrimidin-8(9H)-yl)(4-fluoro-2-{[(3-endo)-8-methyl-8-azabicyclo[3.2.1]oct-3-yl]oxy}phenyl)methanone], the EC50 – broadly, the concentration that produces a half-maximal response – was < 200 nM.
As to `CN1C2CC(Oc3cc(F)ccc3C(=O)N3Cc4nn5cc(Cl)cnc5c4C3)CC1[C@@H](O)C2` (mixture of isomers) [Example 69, (3-chloro-7H-pyrrolo[3′,4′:3,4]pyrazolo[1,5-a]pyrimidin-8(9H)-yl)(4-fluoro-2-(((3-endo)-(6-exo)-6-hydroxy-8-methyl-8-azabicyclo[3.2.1]octan-3-yl)oxy)phenyl)methanone], the EC50 is < 200 nM.

Staying with this assay, now noted: CHO-K1 cells stably transfected with human M1 receptor; compounds added with EC20 of acetylcholine (25 nM), 30 min; intracellular IP1 by IP-One HTRF; read-out: M1 PAM EC50.
With `Cc1nc2c3c(nn2c(C)c1Cl)CN(C(=O)c1ccc(F)cc1O[C@H]1CCN(C)C[C@@H]1F)C3` (racemic) [Example 2, (anti)-(3-chloro-2,4-dimethyl-7H-pyrrolo[3′,4′:3,4]pyrazolo[1,5-a]pyrimidin-8(9H)-yl)(4-fluoro-2-((-3-fluoro-1-methylpiperidin-4-yl)oxy)phenyl)methanone], the EC50 fell in the range of 200 to 1000 nM.
For `Cc1nc2c3c(nn2c(C)c1Cl)CN(C(=O)c1ccc(F)cc1OC[C@H]1C[C@H](F)CN1)C3` [Example 55, (6-Chloro-5,7-dimethyl-1H,3H-2,4,7a,8-tetraaza-cyclopenta[a]inden-2-yl)-[4-fluoro-2-((2R,4S)-4-fluoro-pyrrolidin-2-ylmethoxy)-phenyl]-methanone], the EC50 was in the range of 200 to 1000 nM.
Same read-out and setting: the same measure for `Cc1nc2c3c(nn2c(C)c1Cl)CN(C(=O)c1ccc(C#N)cc1OCCN(C)C)C3` [Example 14, 4-(3-chloro-2,4-dimethyl-8,9-dihydro-7H -pyrrolo[3′,4′:3,4]pyrazolo[1,5-a]pyrimidine-8-carbonyl)-3-(2-(dimethylamino)ethoxy)benzonitrile]: 200 to 1000 nM.
Still for that read-out and setting: the same measure for `Cc1nc2c3c(nn2c(C)c1Cl)CN(C(=O)c1ccc(F)cc1OCCN1CCOCC1)C3` [Example 15, (3-Chloro-2,4-dimethyl-7H-pyrrolo[3′,4′:3,4]pyrazolo[1,5-a]pyrimidin-8(9H)-yl)(4-fluoro-2-(2-morpholinoethoxy)phenyl)methanone]: 1000 to 3000 nM; for `Cc1ccc(CCOc2cc(F)ccc2C(=O)N2Cc3nn4c(C)c(Cl)c(C)nc4c3C2)cn1` [Example 42, (3-chloro-2,4-dimethyl-7H-pyrrolo[3′,4′:3,4]pyrazolo[1,5-a]pyrimidin-8(9H)-yl)(4-fluoro-2-(2-(6-methylpyridin-3-yl)ethoxy)phenyl)methanone]: 200 to 1000 nM.
Regarding `Cc1nc2c3c(nn2c(C)c1Cl)CN(C(=O)c1ccc(F)cc1OCCn1cncn1)C3` [Example 20], the EC50 fell in the range of 200 to 1000 nM.
Regarding `CCOC(=O)N1CCC(Oc2cc(F)ccc2C(=O)N2Cc3nn4c(C)c(Cl)c(C)nc4c3C2)CC1` [Example 28, 4-[2-(6-Chloro-5,7-dimethyl-1H,3H-2,4,7a,8-tetraaza-cyclopenta[a]indene-2-carbonynl)-5-fluoro-phenoxy]-piperidine-1-carboxylic acid ethyl ester], the 50% effective concentration (EC50) is 1000 to 3000 nM.
For the compound `Cc1nc2c3c(nn2c(C)c1Cl)CN(C(=O)c1ccccc1O[C@H]1CN(C)C[C@@H]1O)C3` (racemic) [Example 13, (anti)-(6-Chloro-5,7-dimethyl-1H,3H-2,4,7a,8-tetraaza-cyclopenta[a]inden-2-yl)-[2-(4-hydroxy-1-methyl-pyrrolidin-3-yloxy)-phenyl]-methanone], the EC50 lay in the range of 1000 to 3000 nM.
Turning to `Cc1nc2c3c(nn2c(C)c1Cl)CN(C(=O)c1ccc(F)cc1OC1CC(N)C1)C3` (centres unmarked) [Example 61, [2-(3-Amino-cyclobutoxy)-4-fluoro-phenyl]-(6-chloro-5,7-dimethyl-1H,3H-2,4,7a,8-tetraaza-cyclopenta[a]inden-2-yl)-methanone, hydrochloride], the EC50 was < 200 nM.
